Results taken from patent US20260250293A1, “ULODESINE SALT” (Laevoroc Immunology AG, priority 2021, published 2026).
Read-outs that look alike come from different tables or passages of the source.

How the values were obtained:
Type in all cases: physicochemical
[1] = Solid state stability study; details: for Purity(%): HPLC
Description: (closed) and 40° C./75% RH (open) conditions during 2 weeks. […] At 0, 1 week and 2 weeks' time points, the corresponding samples will be sampled for purity determination by HPLC to assess the chemical stability. Also, one more sample was prepared under corresponding condition for appearance and XRPD test to evaluate the physical stability.

[2] = Aqueous formulation stability; details: for formulation stability: in water at 0.1 mg/ml (calculated by freebase), room temperature, 14 days
Description: The sample condition was maintained at 21-25° C. and protected from light.
Duplicate samples were prepared by transfer 4 ml solution into an 8 mL glass bottle and all the samples were placed in dark under room temperature. At desired time points of 0, 3, 7, 10 and 14 days, the sample concentration was analysed by HPLC and the pH value was measured.

[3] = Dynamic vapour sorption (DVS); details: for DVS hygroscopicity / DVS water uptake: 25° C.
Description: The moisture sorption profile was generated at 25° C. using a DVS moisture balance flow system (Model Advantage 1.0) with the following conditions: sample size approximately 10 mg, drying 25° C. for 60 minutes, adsorption range 0% to 95% RH, desorption range 95% to 0% RH, and step interval 5%. The equilibrium criterion was <0.01% weight change in 5 minutes for a maximum of 120 minutes.

[4] = Thermodynamic solubility study in water, SGF, FaSSIF and FeSSIF; details: for XRPD of residual solid: after 24 hrs solubility study
Description: Then all the samples were vortex for 30 s to disperse homogenously and placed into a constant temperature shaking incubator at 37° C. with 200 rpm for 24 hrs. If the API dissolved, more material will be added to keep suspension state. The concentration, XRPD and pH were tested at desired time points.

[5] = 40° C./75% RH open, 2 weeks, listed as Ulodesine Hemi L-glutarate
[6] = listed as Ulodesine hemi-L-glutarate
[7] = solubility sample in FaSSIF(pH 6.5)
[8] = solubility sample in FeSSIF(pH 5)
[9] = solubility sample in SGF(pH 1.2)
[10] = 40° C./75% RH open, 2 weeks, listed as Ulodesine Hemi succinate
[11] = 60° C. close, 2 weeks, listed as Ulodesine Hemi succinate

SMILES	TRS(%) (=100% − purity %) ([1]; 0 d)	Purity(%) ([1]; 0 d)	TRS Change(%) (Compared to 0 d) ([1]; 40° C./75% RH open, 1 week)	TRS(%) (=100% − purity %) ([1]; 40° C./75% RH open, 1 week)	Purity(%) ([1]; 40° C./75% RH open, 1 week)	Purity(%) ([1]; 40° C./75% RH open, 2 weeks)	TRS Change(%) (Compared to 0 d) ([1]; 60° C. close, 1 week)	TRS(%) (=100% − purity %) ([1]; 60° C. close, 1 week)	Purity(%) ([1]; 60° C. close, 1 week)	TRS Change(%) (Compared to 0 d) ([1]; 60° C. close, 2 weeks)	Purity(%) ([1]; 60° C. close, 2 weeks)	XRPD pre and post DVS [3]	DVS hygroscopicity [3]	DVS water uptake ([3]; at 80% RH)	DVS water uptake ([3]; at 95% RH) [% at 95% RH)]	pH value at 24 hrs [4, 7]	pH value at 24 hrs [4, 8]	pH value at 24 hrs [4, 9]	pH value at 24 hrs ([4]; solubility sample in water)	also measured
O=c1nc[nH]c2c(CN3C[C@H](CO)[C@@H](O)C3)c[nH]c12 [Ulodesine hemi L-glutarate]	0.60	99.403	−0.12	0.48	99.524	99.600	0.15	0.74	99.258	0.42% TRS	98.984	No change	Moderately hygroscopic	(2.53% at 80% RH;	27.06	7.72	7.78	7.75	7.58	degradation (related substance increase) ([1]; 40° C./75% RH condition, during 2 weeks): no related substance increased; TRS Change(%) (Compared to 0 d) [1, 5]: −0.20%; TRS(%) (=100% − purity %) [1, 5]: 0.40%; TRS Change(%) (Compared to 0 d) ([1]; 60° C. close, 2 weeks, listed as Ulodesine Hemi L-glutarate): 0.42%; appearance and XRPD (polymorph) change ([1]; during 2 weeks under 60° C. and 40° C./75% RH conditions): no appearance and polymorph change; chemical stability based on the purity result ([1]; under 40° C./75% RH condition): more chemically stable than Ulodesine Hemi succinate; change of appearance, concentration and purity of solution ([2]; in water at 0.1 mg/ml (cal. by freebase), 14 days at room temperature, dark): no significant change; formulation stability [2]: physically and chemically stable for 14 days; formulation stability ([2]; listed as ulodesine hemi L-glutarate): good formulation stability; DVS hygroscopicity [3, 6]: moderately hygroscopic; DVS water uptake ([3]; at 80% RH, listed as Ulodesine hemi-L-glutarate): 2.53%; XRPD pre and post DVS [3, 6]: no change; XRPD of residual solid ([4]; FaSSIF(pH 6.5)): changed compared to initial solid form; XRPD of residual solid ([4]; FeSSIF(pH 5)): changed compared to initial solid form; XRPD of residual solid ([4]; water): changed compared to initial solid form
O=c1nc[nH]c2c(CN3C[C@H](CO)[C@@H](O)C3)c[nH]c12 [Ulodesine hemi adipinate]												No change	Moderately hygroscopic	(3.68% at 80% RH;	15.80	6.40	6.09	5.60	6.56	
O=c1nc[nH]c2c(CN3C[C@H](CO)[C@@H](O)C3)c[nH]c12 [Ulodesine hemi succinate, reference compound]	0.06	99.942	0.33	0.39	99.613	99.782	0.13	0.18	99.816	0.34% TRS increased at	99.601	No change	Moderately hygroscopic	(6.97% at 80% RH;	11.86	6.16	5.75	5.32	6.34	TRS Change(%) (Compared to 0 d) ([1]; 40° C./75% RH open, 2 weeks): 0.16% TRS increased at; TRS Change(%) (Compared to 0 d) [1, 10]: 0.16%; TRS(%) (=100% − purity %) [1, 10]: 0.22%; TRS Change(%) (Compared to 0 d) [1, 11]: 0.34%; TRS(%) (=100% − purity %) [1, 11]: 0.40%
